# Test results reported in patent publication US7138361B2, “Herbicidal heterocycles” (E. I. du Pont de Nemours and Company, priority 2000, dated 2006).
# What was measured:
# Assay type in all cases: in vivo
# [1] = system: Surinam grass (Brachiaria decumbens); experiment: Test B postemergence; conditions: 13 to 15 days
# Outline: (§1)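 Post-treatment, species sat 13–15 days under greenhouse conditions before visual scoring against controls, 0 (no effect) through 100 (complete control). Application preemergence to sown seeds or postemergence at 1- to 4-leaf stage, using a non-phytotoxic solvent/surfactant formulation.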
# [2] = system: barnyardgrass (Echinochloa crus-galli); experiment: Test B postemergence; conditions: 13 to 15 days
# Outline: as §1
# [3] = system: blackgrass (Alopecurus myosuroides); experiment: Test B postemergence; conditions: 13 to 15 days
# Outline: as §1
# [4] = system: cocklebur (Xanthium strumarium); experiment: Test B postemergence; conditions: 13 to 15 days
# Outline: as §1
# corn (Zea mays) [5] = experiment: Test B postemergence; conditions: 13 to 15 days
# Outline: as §1
# [6] = system: crabgrass (Digitaria sanguinalis); experiment: Test B postemergence; conditions: 13 to 15 days
# Outline: as §1
# [7] = system: giant foxtail (Setaria faberii); experiment: Test B postemergence; conditions: 13 to 15 days
# Outline: as §1
# [8] = system: lambsquarters (Chenopodium album); experiment: Test B postemergence; conditions: 13 to 15 days
# Outline: as §1
# [9] = system: morning glory (Ipomoea hederacea); experiment: Test B postemergence; conditions: 13 to 15 days
# Outline: as §1
# [10] = system: pigweed (Amaranthus retroflexus); experiment: Test B postemergence; conditions: 13 to 15 days
# Outline: as §1
# [11] = system: velvetleaf (Abutilon theophrasti); experiment: Test B postemergence; conditions: 13 to 15 days
# Outline: as §1
# [12] = system: wheat (Triticum aestivum); experiment: Test B postemergence; conditions: 13 to 15 days
# Outline: as §1
# wild oat (Avena fatua) = experiment: Test B postemergence; conditions: 13 to 15 days
# Outline: as §1
# [13] = system: Surinam grass (Brachiaria decumbens); experiment: Test B preemergence
# Outline: as §1
# [14] = system: barnyardgrass (Echinochloa crus-galli); experiment: Test B preemergence
# Outline: as §1
# [15] = system: cocklebur (Xanthium strumarium); experiment: Test B preemergence; conditions: Preemergence, Rate 500 g/ha; scale 0 to 100, 0 no effect, 100 complete control
# Outline: as §1
# corn (Zea mays) [16] = experiment: Test B preemergence
# Outline: as §1
# [17] = system: crabgrass (Digitaria sanguinalis); experiment: Test B preemergence
# Outline: as §1
# [18] = system: giant foxtail (Setaria faberii); experiment: Test B preemergence
# Outline: as §1
# [19] = system: lambsquarters (Chenopodium album); experiment: Test B preemergence
# Outline: as §1
# [20] = system: morning glory (Ipomoea hederacea); experiment: Test B preemergence
# Outline: as §1
# [21] = system: pigweed (Amaranthus retroflexus); experiment: Test B preemergence
# Outline: as §1
# rice (Oryza saliva) [22] = experiment: Test B preemergence
# Outline: as §1
# [23] = system: velvetleaf (Abutilon theophrasti); experiment: Test B preemergence
# Outline: as §1
# [24] = system: barnyardgrass (Echinochloa crus-galli); experiment: Test B flooded paddy test; conditions: Rate 1000 g/ha, scale of 0 to 100 where 0 is no effect and 100 is complete control, visually evaluated after 13 to 15 days
# Outline: (§2)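 Greenhouse-held for 13 to 15 days after treatment at the 2-leaf stage, paddy-grown plants were scored visually against controls on a 0-to-100 control scale; a dash marks no test result.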
# [25] = system: duck salad (Heteranthera limosa); experiment: Test B flooded paddy test; conditions: Rate 1000 g/ha, scale of 0 to 100 where 0 is no effect and 100 is complete control, visually evaluated after 13 to 15 days
# Outline: as §2
# rice (Oryza saliva) [26] = experiment: Test B flooded paddy test; conditions: Rate 1000 g/ha, scale of 0 to 100 where 0 is no effect and 100 is complete control, visually evaluated after 13 to 15 days
# Outline: as §2
# [27] = system: smallflower flatsedge (Cyperus difformis); experiment: Test B flooded paddy test; conditions: Rate 1000 g/ha, scale of 0 to 100 where 0 is no effect and 100 is complete control, visually evaluated after 13 to 15 days
# Outline: as §2
# [28] = system: barnyardgrass (Echinochloa crus-galli); experiment: Test C flooded paddy test; conditions: for Barnyardgrass plant response rating: Flooded Paddy, scale 0 to 100, 0 no effect, 100 complete control; for Plant response rating, Barnyardgrass: flooded paddy test, scale 0 to 100 (0 no effect, 100 complete control)
# Outline: (§3)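 Greenhouse-maintained for 12 to 14 days after treatment, the paddy plants (2-leaf stage at application) were scored visually against controls. A score of 0 denotes no effect and a score of 100 denotes complete control.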
# [29] = system: duck salad (Heteranthera limosa); experiment: Test C flooded paddy test; conditions: for Ducksalad plant response rating: Flooded Paddy, scale 0 to 100, 0 no effect, 100 complete control; for Plant response rating, Ducksalad: flooded paddy test, scale 0 to 100 (0 no effect, 100 complete control)
# Outline: as §3
# rice (Oryza saliva) [30] = experiment: Test C flooded paddy test; conditions: for Rice plant response rating: Flooded Paddy, scale 0 to 100, 0 no effect, 100 complete control; for Plant response rating, Rice: flooded paddy test, scale 0 to 100 (0 no effect, 100 complete control)
# Outline: as §3
# [31] = system: smallflower flatsedge (Cyperus difformis); experiment: Test C flooded paddy test; conditions: for Flatsedge plant response rating: Flooded Paddy, scale 0 to 100, 0 no effect, 100 complete control; for Plant response rating, Flatsedge: flooded paddy test, scale 0 to 100 (0 no effect, 100 complete control)
# Outline: as §3
# [32] = Rate 125 g/ha, scale 0 (no effect) to 100 (complete control)
# [33] = Rate 500 g/ha, scale 0 to 100, 0 is no effect, 100 is complete control
# [34] = Preemergence, Rate 500 g/ha, scale 0 to 100, 0 no effect, 100 complete control
# [35] = preemergence, Rate 125 g/ha, scale of 0 to 100 where 0 is no effect and 100 is complete control, 13 to 15 days
smiles,measurement,setting,value
Cc1cc(N2CCC(n3ccc(C(C)(C)C)n3)C2=O)ccc1Cl (stereo not shown) [Compound 53],"Plant response rating, Surinam grass",[1]; [32],0
same,"Plant response rating, Surinam grass",[1]; [33],0
same,"Plant response rating, Barnyardgrass",[2]; [32],0
same,"Plant response rating, Barnyardgrass",[2]; [33],0
same,"Plant response rating, Blackgrass",[3]; [32],0
same,"Plant response rating, Blackgrass",[3]; [33],0
same,"Plant response rating, Cocklebur",[4]; [32],0
same,"Plant response rating, Cocklebur",[4]; [33],0
same,"Plant response rating, Corn",corn (Zea mays) [5]; [32],0
same,"Plant response rating, Corn",corn (Zea mays) [5]; [33],10
same,"Plant response rating, Crabgrass",[6]; [32],0
same,"Plant response rating, Crabgrass",[6]; [33],0
same,"Plant response rating, Foxtail, Giant",[7]; [32],0
same,"Plant response rating, Foxtail, Giant",[7]; [33],0
same,"Plant response rating, Lambsquarters",[8]; [32],40
same,"Plant response rating, Lambsquarters",[8]; [33],80
same,"Plant response rating, Morningglory",[9]; [32],0
same,"Plant response rating, Morningglory",[9]; [33],10
same,"Plant response rating, Pigweed",[10]; [32],80
same,"Plant response rating, Pigweed",[10]; [33],90
same,"Plant response rating, Velvetleaf",[11]; [32],0
same,"Plant response rating, Velvetleaf",[11]; [33],0
same,"Plant response rating, Wheat",[12]; [32],0
same,"Plant response rating, Wheat",[12]; [33],0
same,"Plant response rating, Wild Oat",wild oat (Avena fatua); [32],0
same,"Plant response rating, Wild Oat",wild oat (Avena fatua); [33],0
same,"Plant response rating, Surinam grass",[13]; [34],0
same,"Plant response rating, Surinam grass",[13]; [35],0
same,"Plant response rating, Barnyardgrass",[14]; [34],90
same,"Plant response rating, Barnyardgrass",[14]; [35],0
same,"Plant response rating, Cocklebur",[15],0
same,"Plant response rating, Corn",corn (Zea mays) [16]; [34],0
same,"Plant response rating, Corn",corn (Zea mays) [16]; [35],0
same,"Plant response rating, Crabgrass",[17]; [34],0
same,"Plant response rating, Crabgrass",[17]; [35],0
same,"Plant response rating, Foxtail, Giant",[18]; [34],0
same,"Plant response rating, Foxtail, Giant",[18]; [35],0
same,"Plant response rating, Lambsquarters",[19]; [34],100
same,"Plant response rating, Lambsquarters",[19]; [35],100
same,"Plant response rating, Morningglory",[20]; [34],0
same,"Plant response rating, Morningglory",[20]; [35],0
same,"Plant response rating, Pigweed",[21]; [34],100
same,"Plant response rating, Pigweed",[21]; [35],100
same,"Plant response rating, Rice",rice (Oryza saliva) [22]; [34],0
same,"Plant response rating, Rice",rice (Oryza saliva) [22]; [35],0
same,"Plant response rating, Velvetleaf",[23]; [34],0
same,"Plant response rating, Velvetleaf",[23]; [35],0
same,"Plant response rating, Barnyardgrass",[24],100
same,"Plant response rating, Ducksalad",[25],30
same,"Plant response rating, Rice",rice (Oryza saliva) [26],20
same,"Plant response rating, Flatsedge",[27],90
same,Barnyardgrass plant response rating,[28]; Rate 250 g/ha,70
same,Barnyardgrass plant response rating,[28]; Rate 500 g/ha,100
same,"Plant response rating, Barnyardgrass",[28]; Rate 62 g/ha,20
same,"Plant response rating, Barnyardgrass",[28]; Rate 125 g/ha,30
same,Ducksalad plant response rating,[29]; Rate 250 g/ha,50
same,Ducksalad plant response rating,[29]; Rate 500 g/ha,60
same,"Plant response rating, Ducksalad",[29]; Rate 62 g/ha,20
same,"Plant response rating, Ducksalad",[29]; Rate 125 g/ha,40
same,Rice plant response rating,rice (Oryza saliva) [30]; Rate 250 g/ha,0
same,Rice plant response rating,rice (Oryza saliva) [30]; Rate 500 g/ha,0
same,"Plant response rating, Rice",rice (Oryza saliva) [30]; Rate 62 g/ha,0
same,"Plant response rating, Rice",rice (Oryza saliva) [30]; Rate 125 g/ha,0
same,Flatsedge plant response rating,[31]; Rate 250 g/ha,90
same,Flatsedge plant response rating,[31]; Rate 500 g/ha,100
same,"Plant response rating, Flatsedge",[31]; Rate 62 g/ha,80
same,"Plant response rating, Flatsedge",[31]; Rate 125 g/ha,90
